Several values for one entry are separate records, joined by “and”; a condition that tells them apart may be missing. Equal entries are not always repeated. Where two headings read alike, the source gives them in different places.
Columns and labels:
[1] = test system: HeLa (adenocarcinoma of the cervix uterus) cells; design: method as in doi:10.1055/s-0036-1588486; conditions: read-out: IC50, 50% inhibition of the cell population growth, HeLa, data taken from ref [3]; cited from earlier work
[2] = test system: HCT116 (intestinal carcinoma) cells; design: method as in doi:10.1055/s-0036-1588486; conditions: read-out: IC50, 50% inhibition of the cell population growth, HCT116, data taken from ref [3]; cited from earlier work
[3] = test system: RD (rhabdomyosarcoma) cells; design: method as in doi:10.1055/s-0036-1588486; conditions: read-out: IC50, 50% inhibition of the cell population growth, RD, data taken from ref [3]; cited from earlier work
[4] = test system: A549 (lung adenocarcinoma) cells; design: method as in doi:10.1055/s-0036-1588486; conditions: read-out: IC50, 50% inhibition of the cell population growth, A549, data taken from ref [3]; cited from earlier work
[5] = test system: RD (rhabdomyosarcoma) cells; assay: Cytotoxicity, MTT assay, RD cells; format: cell-based; conditions: Homo sapiens, read-out: IC50, 50% inhibition of the cell population growth, 72 h, mean ± SD
Procedure: (§1) The cytotoxicity of the newly synthesized Schiff bases was evaluated in vitro in a panel of cultured tumor cells, assessing cell viability at scalar concentrations of the test compounds (≤500 μM) by MTT (i.e., 3-(4,5-dimethylthiazol-2-yl)-2,5-diphenyltetrazolium bromide) and Alamar Blue assays, using doxorubicin as the positive controls. Most of the compounds were tested against RD (rhabdomyosarcoma), HCT116 (intestinal carcinoma), HeLa (adenocarcinoma of the cervix uterus) and A549 (lung adenocarcinoma) cell lines, whereas five representative compounds of the subsets were tested also against K562 (chronic myelogenous leukemia) tumor cells.
(§2) The experiments were carried out in triplicate.

[6] = test system: HCT116 (intestinal carcinoma) cells; assay: Cytotoxicity, MTT assay, HCT116 cells; format: cell-based; conditions: Homo sapiens, HCT-116, read-out: IC50, 50% inhibition of the cell population growth, 72 h, mean ± SD
Procedure: as §1, §2

[7] = test system: HeLa (adenocarcinoma of the cervix uterus) cells; assay: Cytotoxicity, MTT assay, HeLa cells; format: cell-based; conditions: Homo sapiens, read-out: IC50, 50% inhibition of the cell population growth, 72 h, mean ± SD
Procedure: as §1, §2

[8] = target: T1, human butyrylcholinesterase (BChE) (Homo sapiens, UniProt P06276); assay: BChE inhibition, Ellman's method; format: biochemical; conditions: mean ± SD (n = 3), n.i. = no inhibition; for inhibition at 10 µM: read-out: % inhibition hBChE
T1 construct: BChE from human serum (50 U/mg); from tissue; host or cells: human serum
Procedure: (§3) The ChE inhibition assay was carried out using the Ellman’s spectrophotometric method [23], as applied to the 96-well plate technique [24] on a Tecan Infinite M1000 Pro instrument (Cernusco s.N., Italy).

[9] = target: T2, β-amyloid (Aβ)1–40 self-aggregation (Homo sapiens, UniProt P05067); assay: Inhibition of self-induced Aβ40 aggregation, thioflavin T fluorescence; format: biochemical; conditions: for IC50: PBS pH 7.4, 2 h
T2 construct: self-aggregation of Aβ peptides 1–40 (Aβ40)
Procedure: Molecules able to inhibit simultaneously AChE and β-amyloid (Aβ) aggregation/neurotoxicity may have potential as drugs for the treatment of AD [14]. Herein, the new DHPPIQ derivatives were evaluated for the inhibitory effects on the self-aggregation of Aβ peptides 1–40 (Aβ40), through a test based on the measurement of thioflavin T (ThT) fluorescence. Quercetin, which is a strong inhibitor of in vitro Aβ self-aggregation, was used as a positive control.
Each compound was initially tested at a 100-μM concentration. […] […].
According to an already reported 96-well plate procedure, the test compounds at 100 μM were incubated with Aβ40 (30 μM) and 2% HFIP (1,1,1,3,3,3-hexafluoro-2-propanol), used as aggregation enhancer in PBS pH 7.4 for 2 h at room temperature. After the addition of ThT, the fluorescence was read at the 440/485 nm excitation/emission wavelength. Experiments were performed in triplicate, and the % inhibition values calculated as mean ± SD.

human MAO B = target: T3, human MAO B (Homo sapiens, UniProt P27338); assay: biochemical; conditions: for inhibition at 10 µM: mean ± SD (n = 3), read-out: % inhibition hMAO B
T3 construct: host or cells: baculovirus-infected insect cells (microsomes)
T3 sequence (P27338 1-520): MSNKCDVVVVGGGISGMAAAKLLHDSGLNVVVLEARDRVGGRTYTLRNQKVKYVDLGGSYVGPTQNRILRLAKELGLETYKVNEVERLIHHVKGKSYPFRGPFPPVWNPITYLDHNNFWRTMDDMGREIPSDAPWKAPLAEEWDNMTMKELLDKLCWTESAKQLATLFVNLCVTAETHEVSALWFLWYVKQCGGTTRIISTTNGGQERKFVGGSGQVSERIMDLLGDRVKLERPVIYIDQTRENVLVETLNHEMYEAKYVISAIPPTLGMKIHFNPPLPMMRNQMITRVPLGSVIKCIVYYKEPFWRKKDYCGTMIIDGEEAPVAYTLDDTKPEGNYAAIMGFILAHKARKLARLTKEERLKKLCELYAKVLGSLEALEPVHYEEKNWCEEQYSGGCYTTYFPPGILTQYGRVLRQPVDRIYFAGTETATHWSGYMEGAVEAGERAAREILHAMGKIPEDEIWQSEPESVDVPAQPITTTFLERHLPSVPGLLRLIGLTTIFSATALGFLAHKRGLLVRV
Procedure: (§4) The inhibition of human recombinant MAO A (250 U/mg) and B (59 U/mg; microsomes from baculovirus-infected insect cells) was evaluated using the reported 96-well plate technique [12]. on a Tecan Infinite M1000 Pro instrument (Cernusco s.N., Italy). […] After addition of the enzyme and 30 min of incubation, NaOH was added and the fluorescence read at the 310/400 excitation/emission wavelength.

in vitro = conditions: human
[10] = test system: K562 (chronic myelogenous leukemia) cells; assay: Cytotoxicity, Alamar Blue (resazurin) assay, K562 cells; format: cell-based; conditions: Homo sapiens, read-out: IC50, 50% inhibition of the cell population growth, 72 h, mean ± SD
Procedure: as §1, §2

[11] = test system: A549 (lung adenocarcinoma) cells; assay: Cytotoxicity, MTT assay, A549 cells; format: cell-based; conditions: Homo sapiens, read-out: IC50, 50% inhibition of the cell population growth, 72 h, mean ± SD
Procedure: as §1, §2

human MAO A = target: T4, human MAO A (Homo sapiens, UniProt P21397); assay: biochemical; conditions: for inhibition at 10 µM: read-out: % inhibition hMAO A
T4 construct: host or cells: baculovirus-infected insect cells (microsomes)
T4 sequence (P21397 1-527): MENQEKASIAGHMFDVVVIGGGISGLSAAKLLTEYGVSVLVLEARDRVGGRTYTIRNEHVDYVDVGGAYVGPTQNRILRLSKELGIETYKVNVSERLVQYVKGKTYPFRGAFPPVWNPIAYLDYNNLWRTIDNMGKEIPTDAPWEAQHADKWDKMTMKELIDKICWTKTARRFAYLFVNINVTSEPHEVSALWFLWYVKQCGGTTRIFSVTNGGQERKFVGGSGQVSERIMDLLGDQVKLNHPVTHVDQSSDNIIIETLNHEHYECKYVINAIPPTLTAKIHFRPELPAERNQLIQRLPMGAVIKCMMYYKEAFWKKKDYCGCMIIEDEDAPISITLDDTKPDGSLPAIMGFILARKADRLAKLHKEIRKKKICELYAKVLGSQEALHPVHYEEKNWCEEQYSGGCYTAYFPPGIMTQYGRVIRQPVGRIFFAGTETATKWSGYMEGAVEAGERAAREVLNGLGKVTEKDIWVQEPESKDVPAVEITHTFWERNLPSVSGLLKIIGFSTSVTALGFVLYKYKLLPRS
Procedure: as §4

[12] = target: human acetylcholinesterase (AChE) (Homo sapiens, UniProt P22303); assay: biochemical; conditions: for IC50: human recombinant AChE, pH 8.0, mean ± SD (n = 3), read-out: IC50 hAChE; for inhibition mechanism on hAChE: Michaelis-Menten / Lineweaver-Burk plots; for Ki: complete kinetics, human AChE, read-out: inhibition constant (Ki) hAChE
Procedure: as §3

[13] = Aβ40 30 μM, 2% HFIP, ThT, mean ± SD (n = 3)

T1 sequence (P06276 29-602): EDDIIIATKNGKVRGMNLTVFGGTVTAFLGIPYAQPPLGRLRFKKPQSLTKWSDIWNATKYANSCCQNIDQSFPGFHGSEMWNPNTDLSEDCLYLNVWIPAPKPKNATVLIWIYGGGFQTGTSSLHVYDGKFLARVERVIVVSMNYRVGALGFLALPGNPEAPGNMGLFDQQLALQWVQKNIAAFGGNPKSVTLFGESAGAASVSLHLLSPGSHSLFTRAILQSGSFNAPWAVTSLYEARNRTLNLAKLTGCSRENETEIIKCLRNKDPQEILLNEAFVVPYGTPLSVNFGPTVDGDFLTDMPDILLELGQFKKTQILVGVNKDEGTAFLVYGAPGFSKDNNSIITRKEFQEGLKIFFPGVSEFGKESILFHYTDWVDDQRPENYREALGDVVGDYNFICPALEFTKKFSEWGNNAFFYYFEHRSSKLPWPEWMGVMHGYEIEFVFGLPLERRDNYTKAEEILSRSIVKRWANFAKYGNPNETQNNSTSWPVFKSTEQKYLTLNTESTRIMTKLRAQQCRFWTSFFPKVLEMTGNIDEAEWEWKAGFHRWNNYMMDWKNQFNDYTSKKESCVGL
Sequence of human acetylcholinesterase (AChE) (P22303 32-614): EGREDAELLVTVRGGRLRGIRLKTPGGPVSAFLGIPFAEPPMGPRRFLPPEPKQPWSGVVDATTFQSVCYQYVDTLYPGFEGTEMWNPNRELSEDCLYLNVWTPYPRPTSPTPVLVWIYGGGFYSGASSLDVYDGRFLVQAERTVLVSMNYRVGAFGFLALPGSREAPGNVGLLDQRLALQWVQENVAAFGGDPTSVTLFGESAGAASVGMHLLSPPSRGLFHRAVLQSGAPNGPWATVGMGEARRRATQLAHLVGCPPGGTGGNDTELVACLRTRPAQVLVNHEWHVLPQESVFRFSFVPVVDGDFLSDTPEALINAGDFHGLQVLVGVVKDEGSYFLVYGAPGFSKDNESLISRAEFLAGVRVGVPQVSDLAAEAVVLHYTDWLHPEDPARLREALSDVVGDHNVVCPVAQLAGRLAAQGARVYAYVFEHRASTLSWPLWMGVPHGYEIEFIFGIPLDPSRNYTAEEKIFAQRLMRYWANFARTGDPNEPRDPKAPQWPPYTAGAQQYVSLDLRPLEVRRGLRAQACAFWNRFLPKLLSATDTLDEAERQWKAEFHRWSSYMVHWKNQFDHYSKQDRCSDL
T2 sequence (P05067 672-711 limits assumed): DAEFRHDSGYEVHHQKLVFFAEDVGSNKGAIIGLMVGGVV

CCOc1ccc(-c2c(C=O)cn3c2-c2cc(OCC)c(OCC)cc2CC3)cc1OCC [Compound 1]
IC50 [1]: 44.5 ± 2 µM
IC50 [2]: 11.8 ± 0.1 µM
IC50 [3]: 21.3 ± 1.2 µM
IC50 [4]: 19.7 ± 0.3 µM

CCOc1ccc(-c2c(C=O)c(-c3ccccc3)n3c2-c2cc(OCC)c(OCC)cc2CC3)cc1OCC [Compound 2]
IC50 [2]: 183 ± 0.1 µM
IC50 [3]: 365 ± 23 µM
IC50 [4]: 229 ± 21 µM

CCOc1ccc(-c2c(/C=N/c3ccc(OC)cc3)c(-c3ccccc3)n3c2-c2cc(OCC)c(OCC)cc2CC3)cc1OCC [Compound 8, (E)-1-(1-(3,4-diethoxyphenyl)-8,9-diethoxy-3-phenyl-5,6-dihydropyrrolo[2,1-a]isoquinolin-2-yl)-N-(4-methoxyphenyl)methanimine]
melting point: 93 to 95 °C
IC50 [5]: 412 ± 20 µM
IC50 [6]: 286 ± 5 µM
IC50 [7]: 304 ± 10 µM

COc1ccc(/N=C/c2cn3c(c2-c2ccc(Cl)cc2)-c2cc(OC)c(OC)cc2CC3)cc1 [Compound 9, (E)-1-(1-(4-chlorophenyl)-8,9-dimethoxy-5,6-dihydropyrrolo[2,1-a]isoquinolin-2-yl)-N-(4-methoxyphenyl)methanimine]
inhibition at 10 µM [8]: 13 ± 4%
IC50 [9, 13]: 46 ± 5 µM
inhibition at 10 µM (human MAO B): 29 ± 5%
IC50 [5]: 76.4 ± 4.7 µM
IC50 [6]: 37.2 ± 2.4 µM
IC50 at 72 h (in vitro; SH-SY5Y neuroblastoma cells): 22.1 ± 0.8 µM
IC50 [10]: 105 ± 8 µM
IC50 [11]: 99.4 ± 1.1 µM
IC50 [7]: 35.2 ± 0.7 µM
inhibition at 10 µM (human MAO A; at 10 μM, mean ± SD (n = 3)): 39 ± 2%
IC50 [12]: 29.3 ± 2.3 µM

COc1ccc(/N=C/c2c(-c3ccc(F)cc3)c3n(c2-c2ccccc2)CCc2cc(OC)c(OC)cc2-3)cc1 [Compound 12, (E)-1-(1-(4-fluorophenyl)-8,9-dimethoxy-3-phenyl-5,6-dihydropyrrolo[2,1-a]isoquinolin-2-yl)-N-(4-methoxyphenyl)methanimine]
melting point: 195 to 197 °C
IC50 [5]: > 500 µM
IC50 [6]: 148 ± 14 µM
IC50 [11]: > 500 µM
IC50 [7]: 450 ± 19 µM

COc1cc2c(cc1OC)-c1c(-c3ccc(Cl)cc3)c(/C=N/c3ccc(/N=C/c4cn5c(c4-c4ccc(Cl)cc4)-c4cc(OC)c(OC)cc4CC5)cc3)cn1CC2 [Compound 14, (1E,1’E)-N,N’-(1,4-phenylene)bis(1-(1-[4-chlorophenyl]-8,9-dimethoxy-5,6-dihydropyrrolo[2,1-a]isoquinolin-2-yl)methanimine)]
inhibition at 10 µM [8]: 13 ± 1%
IC50 [9, 13]: 13 ± 1 µM
fold stronger inhibition of Aβ40 aggregation than the respective mono-DHPPIQ Schiff base 9 ([9]; ratio of IC50 values, 14 vs 9): 3.5 fold
inhibition at 10 µM (human MAO B): 19 ± 5%
IC50 [5]: 269 ± 11 µM
IC50 [6]: 390 ± 16 µM
IC50 at 72 h (in vitro): 29.3 ± 0.1 µM
IC50 [11]: > 500 µM
IC50 [7]: 310 ± 12 µM
IC50 (human MAO A; human recombinant MAO A, kynuramine, mean ± SD (n = 3), read-out: IC50 hMAO A): 12.1 ± 2.3 µM
hAChE potency relative to the reference compound galantamine ([12]; 14 vs galantamine): tenfold less potent
inhibition mechanism on hAChE [12]: noncompetitive/mixed-type inhibition mechanism
Ki [12]: 4.69 µM
IC50 [12]: 7.3 ± 0.74 µM

CCOc1ccc(-c2c(CN(C)CCNC)cn3c2-c2cc(OCC)c(OCC)cc2CC3)cc1OCC.O=C(O)/C=C/C(=O)O [Compound 17a, 2-(([1-(3,4-diethoxyphenyl]-8,9-diethoxy-5,6-dihydropyrrolo[2,1-a]isoquinolin-2-yl)methyl)(methyl)amino)-N-methylethan-1-aminium (E)-3-carboxyacrylate]
% inhibition hBChE ([8]; at 10 μM): n.i.
inhibition at 100 µM ([9]; at 100 μM, Aβ40 30 μM, 2% HFIP, ThT, mean ± SD (n = 3)): 31 ± 3%
IC50 (human MAO B): 14.3 ± 1.4 µM
IC50 [5]: 10.1 ± 0.1 µM
IC50 [6]: 18.6 ± 0.4 µM
IC50 at 72 h (in vitro; SH-SY5Y neuroblastoma cells): 17.9 ± 0.1 µM
IC50 [10]: 46.6 ± 1.5 µM
IC50 [11]: 35.9 ± 2.4 µM
IC50 [7]: 29.7 ± 0.9 µM
inhibition at 10 µM (human MAO A): 38 ± 5%
inhibition mechanism on hAChE [12]: noncompetitive/mixed-type inhibition mechanism
Ki [12]: 13.6 ± 0.1 µM
IC50 [12]: 16 µM and 16.4 µM

CCOc1ccc(-c2c(/C=N/N=C/c3cn4c(c3-c3ccc(OCC)c(OCC)c3)-c3cc(OCC)c(OCC)cc3CC4)cn3c2-c2cc(OCC)c(OCC)cc2CC3)cc1OCC [Compound 18, (1E,2E)-1,2-bis((1-[3,4-diethoxyphenyl]-8,9-diethoxy-5,6-dihydropyrrolo[2,1-a]isoquinolin-2-yl)methylene)hydrazine]
melting point: 230 to 232 °C
IC50 [6]: > 500 µM
IC50 [7]: 302 ± 23 µM

— publication PMC7827648 (Molecules, 2021)
